A short description of data set [1]: Blood morphine, M3G and M6G concentrations in the recovery room (LC-MS/MS) in children undergoing tonsillectomy. The settings on record: mean±SD.
Data set [2] has as its system pupil. Put plainly: Serial quantitative pupillometry after intraoperative morphine in the pediatric study. In kind it is in vivo, children.
Data set [3] deals with children undergoing tonsillectomy. The experiment in a line: Postoperative respiratory depression and its association with ABCB1 genetic variants in children given morphine. The settings on record: per added copy of minor allele (G) of ABCB1 rs9282564; 263 children; 95% CI: 2.1-10.8, p=0.0002.
The test system of data set [4] is pupil. The settings on record: used as prophylactic antiemetic; cited from earlier work.
[5] abbreviates: children who did not have respiratory depression with prolonged PACU stay.
[6] abbreviates: children who had respiratory depression and prolonged PACU stay due to respiratory depression.

On to `CN1CC[C@]23c4c5ccc(O[C@@H]6O[C@H](C(=O)O)[C@@H](O)[C@H](O)[C@H]6O)c4O[C@H]2[C@@H](O)C=C[C@H]3[C@H]1C5` [M3G, Morphine-3 Glucuronide], for which the “levels in the recovery room” value stood at 0.0607 ± 0.0451 ng/mL in data set [1] (setting [5]) and 0.0431 ± 0.037 ng/mL in data set [1] (setting [6]).
On to `CN1CC[C@]23c4c5ccc(O)c4O[C@H]2[C@@H](O[C@@H]2O[C@H](C(=O)O)[C@@H](O)[C@H](O)[C@H]2O)C=C[C@H]3[C@H]1C5` [M6G, Morphine-6 Glucuronide], for which the “levels in the recovery room” value in data set [1] (setting [5]) stood at 0.0117 ± 0.0071 ng/mL; in data set [1] (setting [6]), 0.0091 ± 0.0039 ng/mL.
Turning to `CN1CC[C@]23c4c5ccc(O)c4O[C@H]2[C@@H](O)C=C[C@H]3[C@H]1C5` [morphine], in data set [2] (FIG. 3, perioperative time points), the “pupillary maximum constriction velocity (MCV) vs blood morphine concentration” value is listed as “decreased as blood morphine concentration increased”. In addition, the “pupillary measures (maximum and minimum pupillary sizes, constriction percentage, maximum constriction velocity)” value in data set [2] (after intraoperative morphine bolus, under general anesthesia, FIGS. 2A-2D) is given as “incremental reductions in all these pupillary measures”. For the same compound, the “PACU pupillary measures compared to the baseline values” in data set [2] (recovery room (PACU) vs preoperative baseline) is on record as “residual depressive effects”. For the same compound, the “levels in the recovery room” value was 8.4 ± 7.9 ng/mL in data set [1] (setting [5]) and 2.25 ± 2.3 ng/mL in data set [1] (setting [6]). In addition, the “increase in odds of a prolonged hospital stay due to postoperative respiratory depression” value in data set [3] stood at 4.7 fold.
For the compound `Cc1nccn1CC1CCc2c(c3ccccc3n2C)C1=O` (centres unmarked) [ondansetron], in data set [4], the “interference with quantitative pupillometry responses” value is recorded as “does not interfere with quantitative pupillometry responses”.

These data come from patent US9763572B2, “Quantitative pupillometry as a bedside predictor of postoperative respiratory depression” (Children's Hospital Medical Center, priority 2015, dated 2017).
